According to US8859535B2, “Hydroxy substituted isoquinolinone derivatives” (Novartis AG, priority 2011, dated 2014):

Molecular target: T1, human MDM2 protein (amino acids 2-188) (Homo sapiens, UniProt Q00987)
T1 construct: human MDM2 protein (amino acids 2-188); made in house
Assay: p53-MDM2 TR-FRET assay, modified (p53-MDM2 Assay 2)
Assay type: binding
Conditions: 0.1 nM MDM2, 0.1 nM Europium labeled streptavidin; read-out: IC50 (nM) of p53-Hdm2 inhibition (TR-FRET) Assay 2
Description: Time Resolved Fluorescence Energy Transfer (TR-FRET) Assay
The inhibition of p53-MDM2 and p53-MDM4 interactions is measured by time resolved fluorescence energy transfer (TR-FRET). Fluorescence energy transfer (or Foerster resonance energy transfer) describes an energy transfer between donor and acceptor fluorescent molecules. For this assay, human MDM2 protein (amino acids 2-188) and human MDM4 protein (amino acids 2-185), tagged with a C-terminal biotin moiety, are used in combination with a Europium labeled streptavidin (Perkin Elmer, Inc., Waltham, Mass., USA) serving as the donor fluorophore. The p53 derived, Cy5 labeled peptide Cy5-TFSDLWKLL (p53 aa18-26) is the energy acceptor. Upon excitation of the donor molecule at 340 nm, binding interaction between MDM2 or MDM4 and the p53 peptide induces energy transfer and enhanced response at the acceptor emission wavelength at 665 nm. Disruption of the formation of the p53-MDM2 or p53-MDM4 complex due to an inhibitor molecule binding to the p53 binding site of MDM2 or MDM4 results in increased donor emission at 620 nm. The ratiometric FRET assay readout is calculated from the raw data of the two distinct fluorescence signals measured in time resolved mode (fluorescence 665 nm/fluorescence 620 nm×1000).
After addition of 1.25 nM MDM2-biotinylated or 2.5 nM MDM4-biotinylated (internal preparations), and 0.625 nM Europium labeled streptavidin (Perkin Elmer), the solution is pre-incubated for 15 minutes at room temperature, then 10 nM Cy5-p53 peptide (internal preparation) is added before an incubation at room temperature for 15 minutes prior to reading the plate. For measurement of samples, a Victor II microplate reader (Perkin Elmer) is used with the following settings: Excitation 340 nm, Emission Donor 620 nm and Emission Acceptor 665 nm. IC50 values are calculated by curve fitting using XLfit. If not specified, reagents are purchased from Sigma-Aldrich Chemie GmBH, Buchs, Switzerland.
This assay was used to evaluate compounds displaying inhibition of p53-MDM2 interaction and p53-MDM4 interaction at IC50s of 0.005 to 50 μM (p53-MDM2 Assay 1 and p53-MDM4 Assay 1, respectively). For selected compounds displaying IC50s between […] on MDM2, a slightly modified assay is used with the following adaptations: 0.1 nM MDM2, 0.1 nM Europium labeled streptavidin and Tecan genios Pro is used as a microplate reader for the fluorescence measurements (p53-MDM2 Assay 2).

T1 sequence (Q00987 2-188): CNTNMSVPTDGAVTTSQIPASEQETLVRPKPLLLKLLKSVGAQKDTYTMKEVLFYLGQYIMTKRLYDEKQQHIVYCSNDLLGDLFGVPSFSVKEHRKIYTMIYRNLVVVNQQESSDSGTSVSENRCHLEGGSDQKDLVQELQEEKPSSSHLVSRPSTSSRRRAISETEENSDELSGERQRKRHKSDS

| Compound | IC50 |
| --- | --- |
| [2H]C([2H])([2H])Oc1cc2c(cc1OC(C)C)[C@H](c1ccc(Cl)cc1)N(c1ccc(C(C)(O)C3CCS(=O)(=O)CC3)cc1)C(=O)C2 (mixture of isomers) [Example 150, (S)-1-(4-Chloro-phenyl)-2-{4-[1-(1,1-dioxo-hexahydro-1-thiopyran-4-yl)-1-hydroxy-ethyl]-phenyl}-7-isopropoxy-6-d^3-methoxy-1,4-dihydro-2H-isoquinolin-3-one] | 4.43 nM |
| COc1cc2c(cc1OC(C)C)[C@H](c1ccc(Cl)cc1)N(c1ccc([C@](C)(O)C3CCN(C=O)CC3)cc1)C(=O)C2 (single isomer, unassigned) [Example 124] | 150 nM |
| COc1cc2c(cc1OC(C)C)[C@H](c1ccc(Cl)cc1)N(c1ccc([C@](C)(O)C3CCN(C4COC4)CC3)cc1)C(=O)C2 (single isomer, unassigned) [Example 126] | 58.6 nM |
| COc1cc2c(cc1OC(C)C)[C@H](c1ccc(Cl)cc1)N(c1ccc([C@](C)(O)C3CCN(C(=O)COC(C)=O)CC3)cc1)C(=O)C2 (single isomer, unassigned) [Example 129] | 99.8 nM |
| COc1cc2c(cc1OC(C)C)[C@H](c1ccc(Cl)cc1)N(c1ccc([C@](C)(O)C3CCN(CCO)CC3)cc1)C(=O)C2 (single isomer, unassigned) [Example 132] | 25.3 nM |
| COc1cc2c(cc1OC(C)C)[C@H](c1ccc(Cl)cc1)N(c1ccc([C@](C)(O)C3CCN(C(=O)CO)CC3)cc1)C(=O)C2 (single isomer, unassigned) [Example 134] | 141 nM |
| COc1cc2c(cc1OC(C)C)[C@H](c1ccc(Cl)cc1)N(c1ccc([C@@](C)(O)C34CCC(CC3)C4)cc1)C(=O)C2 (single isomer, unassigned) [Example 139] | 2.72 nM |
| COc1cc2c(cc1OC(C)C)[C@H](c1ccc(Cl)cc1)N(c1ccc([C@](C)(O)C34CCC(CC3)C4)cc1)C(=O)C2 (single isomer, unassigned) [Example 140] | 305 nM |
| [2H]C([2H])([2H])Oc1cc2c(cc1OC(C)C)[C@H](c1ccc(Cl)cc1)N(c1ccc([C@](C)(O)C3CCS(=O)(=O)CC3)cc1)C(=O)C2 (single isomer, unassigned) [Example 152] | 152 nM |
| [2H]C([2H])([2H])Oc1cc2c(cc1OC(C)C)[C@H](c1ccc(Cl)cc1)N(c1ccc([C@@](C)(O)C3CCS(=O)(=O)CC3)cc1)C(=O)C2 (single isomer, unassigned) [Example 153] | 3.16 nM |
| [2H]C([2H])([2H])Oc1cc2c(cc1OC(C)C)[C@H](c1ccc(Cl)cc1)N(c1ccc([C@](C)(O)C3CCN(C=O)CC3)cc1)C(=O)C2 (single isomer, unassigned) [Example 154] | 78.7 nM |
| COc1cc2c(cc1OC(C)C)[C@H](c1ccc(Cl)cc1)N(c1ccc([C@](C)(O)C3CC4CCC(C3)O4)cc1)C(=O)C2 (single isomer, unassigned) [Example 160] | 41.9 nM |
| COc1cc2c(cc1OC(C)C)[C@H](c1ccc(Cl)cc1)N(c1ccc([C@](C)(O)C3CC(C)(C)OC(C)(C)C3)cc1)C(=O)C2 (single isomer, unassigned) [Example 164] | 509 nM |
| COc1cc2c(cc1OC(C)C)[C@H](c1ccc(Cl)cc1)N(c1ccc(C(C)(O)C3CN(C4COC4)C3)cc1)C(=O)C2 (stereo partly drawn) [Example 103, (S)-1-(4-Chloro-phenyl)-2-{4-[1-hydroxy-1-(1-oxetan-3-yl-azetidin-3-yl)-ethyl]-phenyl}-7-isopropoxy-6-methoxy-1,4-dihydro-2H-isoquinolin-3-one] | 9.18 nM |
| COc1cc2c(cc1OC(C)C)[C@H](c1ccc(Cl)cc1)N(c1ccc(C(C)(O)C3CC4CCCC(C3)N4C3COC3)cc1)C(=O)C2 (stereo partly drawn) [Example 120, (S)-1-(4-Chloro-phenyl)-2-{4-[1-hydroxy-1-(9-oxetan-3-yl-9-aza-bicyclo[3.3.1]non-3-yl)-ethyl]-phenyl}-7-isopropoxy-6-methoxy-1,4-dihydro-2H-isoquinolin-3-one] | 4.67 nM |
| COc1cc2c(cc1OC(C)C)[C@H](c1ccc(Cl)cc1)N(c1ccc(C(C)(O)C3CC4CCCC(C3)N4C(=O)COC(C)=O)cc1)C(=O)C2 (stereo partly drawn) [Example 121, Acetic acid 2-[3-(1-{4-[(S)-1-(4-chloro-phenyl)-7-isopropoxy-6-methoxy-3-oxo-3,4-dihydro-1H-isoquinolin-2-yl]-phenyl}-1-hydroxy-ethyl)-9-aza-bicyclo[3.3.1]non-9-yl]-2-oxo-ethyl ester] | 3.44 nM |
| CCN1C2CCCC1CC(C(C)(O)c1ccc(N3C(=O)Cc4cc(OC)c(OC(C)C)cc4[C@@H]3c3ccc(Cl)cc3)cc1)C2 (stereo partly drawn) [Example 122, (S)-1-(4-Chloro-phenyl)-2-{4-[1-(9-ethyl-9-aza-bicyclo[3.3.1]non-3-yl)-1-hydroxy-ethyl]-phenyl}-7-isopropoxy-6-methoxy-1,4-dihydro-2H-isoquinolin-3-one] | 2.31 nM |
| COc1cc2c(cc1OC(C)C)[C@H](c1ccc(Cl)cc1)N(c1ccc(C(C)(O)C3CC4CCCC(C3)N4C(=O)CO)cc1)C(=O)C2 (stereo partly drawn) [Example 123, (S)-1-(4-Chloro-phenyl)-2-(4-{1-hydroxy-1-[9-(2-hydroxy-acetyl)-9-aza-bicyclo[3.3.1]non-3-yl]-ethyl}-phenyl)-7-isopropoxy-6-methoxy-1,4-dihydro-2H-isoquinolin-3-one] | 4.2 nM |
| [2H]C([2H])([2H])Oc1cc2c(cc1OC(C)C)[C@H](c1ccc(Cl)cc1)N(c1ccc(C(C)(O)C3CCN(C=O)CC3)cc1)C(=O)C2 (stereo partly drawn) [Example 151, 4-(1-{4-[(S)-1-(4-Chloro-phenyl)-7-isopropoxy-6-d^3-methoxy-3-oxo-3,4-dihydro-1H-isoquinolin-2-yl]-phenyl}-1-hydroxy-ethyl)-piperidine-1-carbaldehyde] | 2.09 nM |

The remaining compounds from weak to strong by IC50, led by results:

| IC50 | Compound |
| --- | --- |
| 2.08 nM | COc1cc2c(cc1OC(C)C)[C@H](c1ccc(Cl)cc1)N(c1ccc(C(C)(O)C3CCN(C[C@@H](O)CO)CC3)cc1)C(=O)C2 (stereo partly drawn) [Example 130, (S)-1-(4-Chloro-phenyl)-2-(4-{1-[1-((R)-2,3-dihydroxy-propyl)-piperidin-4-yl]-1-hydroxy-ethyl}-phenyl)-7-isopropoxy-6-methoxy-1,4-dihydro-2H-isoquinolin-3-one] |
| 1.62 nM | COc1cc2c(cc1OC(C)C)[C@H](c1ccc(Cl)cc1)N(c1ccc([C@@](C)(O)C3CCN(C(=O)CO)CC3)cc1)C(=O)C2 (single isomer, unassigned) [Example 133] |
| 1.47 nM | CNC(=O)N1C2CCCC1CC(C(C)(O)c1ccc(N3C(=O)Cc4cc(OC)c(OC(C)C)cc4[C@@H]3c3ccc(Cl)cc3)cc1)C2 (stereo partly drawn) [Example 119, 3-(1-{4-[(S)-1-(4-Chloro-phenyl)-7-isopropoxy-6-methoxy-3-oxo-3,4-dihydro-1H-isoquinolin-2-yl]-phenyl}-1-hydroxy-ethyl)-9-aza-bicyclo[3.3.1]nonane-9-carboxylic acid methylamide] |
| 1.42 nM | COc1cc2c(cc1OC(C)C)[C@H](c1ccc(Cl)cc1)N(c1ccc([C@@](C)(O)C3CCN(CCO)CC3)cc1)C(=O)C2 (single isomer, unassigned) [Example 131] |
| 1.34 nM | COc1cc2c(cc1OC(C)C)[C@H](c1ccc(Cl)cc1)N(c1ccc([C@@](C)(O)C3CCN(C(=O)COC(C)=O)CC3)cc1)C(=O)C2 (single isomer, unassigned) [Example 128] |
| 1.26 nM | COc1cc2c(cc1OC(C)C)[C@H](c1ccc(Cl)cc1)N(c1ccc([C@@](C)(O)C3CC(C)(C)OC(C)(C)C3)cc1)C(=O)C2 (single isomer, unassigned) [Example 163] |
| 1.23 nM | [2H]C([2H])([2H])Oc1cc2c(cc1OC(C)C)[C@H](c1ccc(Cl)cc1)N(c1ccc([C@@](C)(O)C3CCN(C=O)CC3)cc1)C(=O)C2 (single isomer, unassigned) [Example 155] |
| 0.935 nM | COc1cc2c(cc1OC(C)C)[C@H](c1ccc(Cl)cc1)N(c1ccc([C@@](C)(O)C3CCN(C4COC4)CC3)cc1)C(=O)C2 (single isomer, unassigned) [Example 127] |
| 0.894 nM | COc1cc2c(cc1OC(C)C)[C@H](c1ccc(Cl)cc1)N(c1ccc([C@@](C)(O)C3CC4CCC(C3)O4)cc1)C(=O)C2 (single isomer, unassigned) [Example 159] |
| 0.746 nM | COc1cc2c(cc1OC(C)C)[C@H](c1ccc(Cl)cc1)N(c1ccc([C@@](C)(O)C3CCN(C=O)CC3)cc1)C(=O)C2 (single isomer, unassigned) [Example 125] |
